Usually IC50 stands for the concentration that inhibits the measured activity by half.

This note sets out measurements from US11530196B2, “Pyrimidine compound acting on EGFR and ERBB2” (CHINA RESOURCES PHARMACEUTICAL HOLDINGS COMPANY LIMITED, priority 2019, dated 2022).

Data set [1] in a line: Compound stability test in plasma (rat). In kind it is in vitro ADME, SD rat. The procedure:
In this study, mouse, SD rat, Beagle, cynomolgus monkey and human plasma were used as materials to investigate the stability of the tested compounds in the plasma of the above five species. Propantheline, Enalapril, Bisacodyl and Procaine were used as control compounds.
The experimental conditions for the test compounds were as follows: • test concentration: 2 μM (DMSO ≤0.5%); • incubation times: 0, 10, 30, 60 and 120 minutes; • frozen plasma (from multiple species) was used in the test system; • incubation conditions: 37° C.
The mixed frozen plasma was thawed in a 37° C. water bath prior to the experiment. Plasma was centrifuged at 4000 rpm for 5 minutes and cleared if there was a clot. The pH will be adjusted to 7.4±0.1 if required.
The intermediate solution of 1 mM compound and positive control was prepared by diluting 10 mM stock solution with 90 μL of dimethyl sulfoxide. 100 μM solution was prepared by diluting 20 μL of intermediate solution (1 mM) with 180 μL of 45% methanol/water.
2 μL of 100 μM solution was added to 98 μL of blank plasma to achieve a final concentration of 2 μM (in duplicate) of the sample, and the sample was incubated in a 37° C. water bath. At each time point (0, 10, 30, 60 and 120 min), 400 μL of termination solution (200 ng/mL toluenesulfonylurea and 200 ng/mL labetalol, 50% ACN/MeOH) was added to precipitate the proteins and mixed thoroughly. […]

Data set [2] deals with T1, Wild-type EGFR enzymes (Homo sapiens, UniProt P00533).
T1 construct: purchased Invitrogen PR7295B
T1 sequence (P00533 25-1210): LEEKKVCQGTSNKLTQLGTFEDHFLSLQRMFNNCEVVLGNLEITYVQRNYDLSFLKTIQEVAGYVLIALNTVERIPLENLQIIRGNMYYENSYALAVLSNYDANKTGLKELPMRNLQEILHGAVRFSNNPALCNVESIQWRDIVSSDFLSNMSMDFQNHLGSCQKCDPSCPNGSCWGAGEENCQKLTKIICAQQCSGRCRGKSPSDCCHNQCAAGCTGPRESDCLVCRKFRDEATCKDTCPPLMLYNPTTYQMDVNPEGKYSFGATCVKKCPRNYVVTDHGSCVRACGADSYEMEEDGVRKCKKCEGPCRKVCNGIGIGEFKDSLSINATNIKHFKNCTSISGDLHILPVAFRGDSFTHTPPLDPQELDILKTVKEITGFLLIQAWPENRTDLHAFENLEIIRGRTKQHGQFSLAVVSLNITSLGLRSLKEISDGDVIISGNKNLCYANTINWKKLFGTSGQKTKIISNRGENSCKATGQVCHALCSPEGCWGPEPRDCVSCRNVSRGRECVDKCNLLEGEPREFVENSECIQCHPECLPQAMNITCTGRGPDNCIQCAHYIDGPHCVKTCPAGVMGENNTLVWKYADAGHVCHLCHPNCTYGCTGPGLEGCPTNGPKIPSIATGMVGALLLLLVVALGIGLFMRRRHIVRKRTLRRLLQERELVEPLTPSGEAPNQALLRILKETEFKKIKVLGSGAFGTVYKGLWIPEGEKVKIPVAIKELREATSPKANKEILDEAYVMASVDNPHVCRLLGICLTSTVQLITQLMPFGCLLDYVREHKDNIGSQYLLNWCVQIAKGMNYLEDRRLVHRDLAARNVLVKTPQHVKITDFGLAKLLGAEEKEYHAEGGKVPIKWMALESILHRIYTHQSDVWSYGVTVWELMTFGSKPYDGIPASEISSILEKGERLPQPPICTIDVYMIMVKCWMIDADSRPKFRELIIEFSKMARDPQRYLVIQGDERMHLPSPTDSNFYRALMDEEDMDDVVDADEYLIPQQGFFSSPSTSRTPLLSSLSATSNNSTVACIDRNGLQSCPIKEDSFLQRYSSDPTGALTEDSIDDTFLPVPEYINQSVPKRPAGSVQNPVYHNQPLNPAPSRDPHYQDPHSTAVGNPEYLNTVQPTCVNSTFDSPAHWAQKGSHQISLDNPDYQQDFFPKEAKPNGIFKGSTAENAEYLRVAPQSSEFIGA
As to the kind of experiment: Kinase assay (HTRF KinEASE TK), EGFR WT. In kind it is biochemical. To be noted: read-out: Enzyme IC50. From the text: (§1) To detect the inhibitory effect of compounds on EGFR WT, EGFR (D770_N771insNPG), ERBB2 (V777_G778ins>CG), EGFR T790M/L858R enzyme activities
(§2) EGFR WT (Invitrogen, Cat. No. PR7295B), EGFR [L858R] (Invitrogen, Cat. No. PR7447A), EGFR [d746-750] (Invitrogen, Cat. No. PV6179), ATP (Sigma, Cat. No. A7699-1G), DMSO (Sigma, Cat. No. D2650), DTT (Sigma, Cat. No. 43815), 384-well plate, compound dilution plate (Greiner, Cat. No. 781280), 384-well plate, test plate (Perkin Elmer, Cat. No. 6007299), HTRF KinEASE TK Kit (Cisbio, Cat. No. 62TK0PEB), magnesium chloride (Sigma, Cat. No. M1028), Orthovanadate (Sigma, Cat. No. 56508), BSA (Sigma, Cat. No. A7030), HEPES (Life technology, Cat. No. 11344-041).
(§3) The final test concentrations of the test compounds ranged from 10 μM to 0.17 nM in 3-fold gradient dilutions at 11 concentrations.
(§4) The preparation of the buffer, 50 mM HEPES (pH 7.5), 0.01% BSA, 5 mM MgCl2, and 0.1 mM Orthovanadate were contained in the buffer. After the preparation of the buffer, the enzyme and substrate were mixed with pre-diluted prepared compounds of different concentrations, and the mixture was placed at room temperature for 15 minutes. […] After the reaction was completed, the antibody was added to the assay, incubated at room temperature for 60 minutes and then detected by Envision (plate reading instrument), and data were collected. […]
On the technique in general: In TR-FRET formats the signal depends on donor and acceptor labels being close together.

Data set [3] addresses EGFR exon 20 insertion (D770_N771insNPG) enzyme (Homo sapiens, UniProt P00533, INS770NPG). The data set can be described thus: Kinase assay (HTRF KinEASE TK), EGFR exon 20 insertion. It is filed as biochemical.
Excerpt: as §1, §2, §3, §4

For data set [4], the target named is HER2 exon 20 insertion (V777_G778ins > CG) enzyme (Homo sapiens, UniProt P04626, INS777CG). The data set can be described thus: Kinase assay (HTRF KinEASE TK), HER2 exon 20 insertion. In kind it is biochemical.
HER2 exon 20 insertion (V777_G778ins > CG) enzyme, sequence (P04626 with tags, fused parts or gaps INS777CG limits assumed): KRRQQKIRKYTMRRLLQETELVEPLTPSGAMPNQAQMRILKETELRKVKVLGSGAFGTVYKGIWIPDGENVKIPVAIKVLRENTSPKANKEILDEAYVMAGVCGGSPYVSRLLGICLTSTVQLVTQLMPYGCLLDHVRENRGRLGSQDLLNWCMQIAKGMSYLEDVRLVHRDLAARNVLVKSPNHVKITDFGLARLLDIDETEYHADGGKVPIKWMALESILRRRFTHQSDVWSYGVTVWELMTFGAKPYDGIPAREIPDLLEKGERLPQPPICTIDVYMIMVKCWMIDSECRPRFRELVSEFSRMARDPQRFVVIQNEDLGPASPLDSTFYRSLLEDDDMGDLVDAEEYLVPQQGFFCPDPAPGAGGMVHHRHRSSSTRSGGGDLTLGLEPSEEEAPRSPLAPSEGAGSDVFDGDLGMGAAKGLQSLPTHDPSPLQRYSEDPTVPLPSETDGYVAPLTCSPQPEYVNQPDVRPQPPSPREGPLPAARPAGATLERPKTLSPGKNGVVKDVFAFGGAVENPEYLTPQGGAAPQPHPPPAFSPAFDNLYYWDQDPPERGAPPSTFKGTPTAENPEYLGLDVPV
Excerpt: as §1, §2, §3, §4

The target in data set [5] is Ba/F3 EGFR-H773_V774insNPH (Homo sapiens, UniProt P00533, DUP771-773, cells depend on it). The data set can be described thus: Anti-proliferation against Ba/F3 exon 20 insertion mutant cells (NPH). The settings on record: CTG, 72 hours, read-out: Mutant cells IC50 (anti-proliferation). In kind it is cell-based, mouse. An excerpt: RPMI1640 medium was purchased from Hyclone, FBS fetal bovine serum was purchased from GBICO, and trypsin-EDTA were both purchased from Giboco. DPBS was purchased from Corning, penicillin/streptomycin solution was purchased from Hyclone, and Cell-Titer Glo reagent was purchased from Promega (Cat. No. G7572). Ba/F3 EGFR-D770_N771insSVD, Ba/F3 EGFR-H773_V774insNPH, Ba/F3 EGFR-V769_D770insASV, BaF3 ERBB2 A775_G776 ins YVMA, the cell lines were constructed by Beijing Kang Yuan Bochuang Biotechnology Co., Ltd. Plate reading instrument: Envision (PerkinElmer).
Ba/F3 EGFR-H773_V774insNPH, sequence (P00533 with tags, fused parts or gaps DUP771-773): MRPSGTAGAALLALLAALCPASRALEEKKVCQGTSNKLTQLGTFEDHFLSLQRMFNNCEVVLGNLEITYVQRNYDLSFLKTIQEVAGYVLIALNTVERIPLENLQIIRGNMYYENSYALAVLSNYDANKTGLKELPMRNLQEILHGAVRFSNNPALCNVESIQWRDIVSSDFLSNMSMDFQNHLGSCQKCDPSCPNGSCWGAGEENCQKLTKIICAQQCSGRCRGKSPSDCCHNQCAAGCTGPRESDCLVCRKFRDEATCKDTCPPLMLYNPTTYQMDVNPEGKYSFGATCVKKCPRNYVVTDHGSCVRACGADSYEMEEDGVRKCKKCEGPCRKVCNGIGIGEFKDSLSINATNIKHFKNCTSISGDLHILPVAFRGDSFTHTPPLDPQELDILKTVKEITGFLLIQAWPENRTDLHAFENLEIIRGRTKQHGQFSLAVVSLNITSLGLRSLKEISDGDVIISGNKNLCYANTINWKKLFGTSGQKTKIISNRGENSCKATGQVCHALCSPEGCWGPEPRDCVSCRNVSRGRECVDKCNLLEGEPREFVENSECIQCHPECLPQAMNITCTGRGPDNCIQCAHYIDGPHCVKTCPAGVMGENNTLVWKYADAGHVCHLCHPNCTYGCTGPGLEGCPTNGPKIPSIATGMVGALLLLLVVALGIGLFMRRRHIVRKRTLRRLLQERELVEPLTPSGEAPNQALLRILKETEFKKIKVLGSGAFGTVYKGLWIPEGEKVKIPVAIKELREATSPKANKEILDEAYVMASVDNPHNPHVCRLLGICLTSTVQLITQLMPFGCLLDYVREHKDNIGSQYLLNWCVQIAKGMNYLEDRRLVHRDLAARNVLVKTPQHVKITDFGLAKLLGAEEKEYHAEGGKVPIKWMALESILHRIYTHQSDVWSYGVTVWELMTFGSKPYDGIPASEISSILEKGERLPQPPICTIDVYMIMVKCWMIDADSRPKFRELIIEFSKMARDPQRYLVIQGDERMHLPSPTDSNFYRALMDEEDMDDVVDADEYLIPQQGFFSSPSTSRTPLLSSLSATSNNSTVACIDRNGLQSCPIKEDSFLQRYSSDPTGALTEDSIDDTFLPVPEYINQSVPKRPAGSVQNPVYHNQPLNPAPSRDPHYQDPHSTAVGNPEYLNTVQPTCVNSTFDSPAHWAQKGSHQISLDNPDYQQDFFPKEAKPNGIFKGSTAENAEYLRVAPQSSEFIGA
Cells in logarithmic growth phase were harvested and cell counts were performed using a […]. Cell viability was detected by the Taipan Blue rejection assay. The cell concentration was adjusted; the cell suspension was added to a 96-well plate separately. Cells in 96-well plates were incubated overnight at 37° C., 5% CO2, and 95% humidity. […] The cell plate was placed at room temperature to stabilize the cold light signal, and the cold light values were read. The data were analyzed using GraphPad Prism 7.0 software, and a nonlinear S-curve regression was used to fit the data to derive the dose-effect curve from which the IC50 values were calculated. […]

Values joined by “and” are separate entries in the source; they are usually repeats but may differ in a detail not shown here. Equal values may be shown once.

EGFR exon 20 insertion (D770_N771insNPG) enzyme, sequence (P00533 with tags, fused parts or gaps INS770NPG limits assumed): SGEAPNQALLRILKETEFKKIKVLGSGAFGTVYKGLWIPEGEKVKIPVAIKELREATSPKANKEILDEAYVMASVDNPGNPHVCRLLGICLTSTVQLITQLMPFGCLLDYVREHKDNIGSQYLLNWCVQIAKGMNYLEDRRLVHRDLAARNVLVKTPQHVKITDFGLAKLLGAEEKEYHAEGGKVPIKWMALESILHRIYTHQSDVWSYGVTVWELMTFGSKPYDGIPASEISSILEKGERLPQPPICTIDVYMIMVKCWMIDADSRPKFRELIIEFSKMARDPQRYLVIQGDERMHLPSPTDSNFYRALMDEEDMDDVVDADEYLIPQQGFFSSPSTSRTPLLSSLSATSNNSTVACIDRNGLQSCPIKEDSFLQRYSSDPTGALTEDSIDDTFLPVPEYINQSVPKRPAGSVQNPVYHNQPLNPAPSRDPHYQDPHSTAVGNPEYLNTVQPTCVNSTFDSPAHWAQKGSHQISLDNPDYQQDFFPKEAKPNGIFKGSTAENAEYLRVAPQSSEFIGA

`C=CC(=O)Nc1cc(Nc2ncc(C(=O)OC(C)C)c(-c3cn(OC)c4ccccc34)n2)c(OC)cc1N(C)CCN(C)C.CS(=O)(=O)O` [Compound 1]: the “In vitro plasma stability (Residual percentage)” value in data set [1] (120 minutes, 2 μM, 37° C.) worked out at 87.9%. Besides, the half-life at 2 µM in data set [1] (Sprague-Dawley (SD), pH 7.4, 37° C., read-out: In vitro plasma half-life T1/2) was greater than 4.82 h. Also, the IC50 in data set [2] is 0.39 nM; in data set [3] it was 0.8 nM and 0.7 nM; in data set [4] it was 1.86 nM. Besides, in data set [5], the GI50 worked out at 15 nM.
